According to patent US20010053766A1, “Method of treating disorders of the eye” (priority 2000, published 2001):
Ends that are not written are not given here.

Key:
[1] = test system: outflow pathway cells of perfused porcine eyes; assay: Morphological studies of perfused eyes (transmission electron microscopy of outflow pathway); conditions: porcine eyes perfused with peptide, 4 pairs, versus sham controls
Protocol: After completion of RGD perfusion experiments, 4 pairs of the experimental and the control eyes were fixed for morphological examination. The fixation was performed by perfusing overnight at constant pressure of 15 mmHg with perfusion buffer containing 2.5% gluteraldehyde and 2.0% formaldehyde. Small cross-section wedges of the outflow pathway area of fixed eyes were prepared for transmission electron microscopy as described previously (Epstein et al, Invest. Ophthalmol Vis. Sci. 40:74-8116 (1999)). The specimens were fixed in 1% osmium tetraoxide in 0.1 M sodium cacodylate buffer and stained with 1% uranyl acetate for 1 hr in dark. Further, the tissues were dehydrated, infiltrated and embedded on Spurr embedding medium (Ted Pella, Inc., Redding, Calif.). Ultrathin sections (70 nm) were obtained by microtomy and stained with potassium permanganate and Sato's lead sequentially before examined with a transmission electron microscope (1200 EX; JEOL, Peabody, Mass.).

[2] = test system: New Zealand White rabbits; assay: RGD-peptide injection in the anterior chamber of rabbit eye; type: in vivo; conditions: 500 μg in PBS injected into the anterior chamber of one eye, live rabbits n=3
Protocol: New Zealand White rabbits of approximately five pounds were used for this experiment. Baseline Intraocular Pressure (IOP) data was obtained using a MENTOR tonopen prior to anaesthesia. The rabbits were anaesthetized with IM KETAMINE and topical proparacaine. The GRGDTP peptide (500 μg) was dissolved in phosphate buffered saline (PBS) and injected into the anterior chamber of only one eye. Further intraocular pressure mesurements were performed with a tonopen and data recorded in a time dependent manner, as shown in FIG. 8.
The results are expressed as percent change in IOP as compared to basal values obtained before injection of the RGD peptide. The basal value was taken as IOP (0%) in both eyes and the contralateral eye was used as control.

[3] = test system: Human Schlemm's canal (SC) cell monolayers; assay: SC cells monolayer integrity assay in vitro (phase contrast, F-actin and focal adhesion staining); type: cell-based; conditions: complete medium, 37 C
Protocol: (§1) Human cadaver eye tissues were obtained from the National Disease Research Interchange (NDRI; Philadelphia, Pa.), and the SC cells were isolated following the techniques previously described (Stammer et al, Invest. Ophthalmol. Vis. Sci. 39:1804 (1998)). The cells were grown in Dulbecco's modified Eagle's medium with 10% fetal bovine serum, 2 mM L-glutamine, 100 U/ml penicillin G and 100 μg/ml streptomycine sulfate (all from GibcoBRL, Gaithersburg, Md.). The primary cultures of SC cells were used between the passages of three to six, throughout the experiments.
To evaluate the effect of RGD peptide on monolayer integrity, the SC cells were seeded on fibronectin-coated coverslips and grown for 10 days in complete medium. Before the experiment, the gaps in the confluent cells layer on coverslips were examined thoroughly. Further, the culture media was replaced with RGD peptide or control RGE peptide (200 μM)-containing complete medium and incubated at 37° C. in CO2 incubator. The changes in morphology (cell retraction, cell-cell attachments) were followed for 3 hrs. The induced morphological changes were monitored by phase contrast microscopy (Zeiss IM 35). For clear illustration of the specific and non-toxic effects of RGD peptide, the changes in SC cells monolayer integrity and reversibility were followed after treatment at higher concentration (1.0 mM) as compared to control RGE peptide. The coverslips were fixed with 3.7% formaldehyde and stained for F-actin and focal adhesions as described earlier (Lampugnani et al, J. Cell Biol. 112: 479-490 (1991)). The RGD-containing medium was removed with complete culture medium after three times washing and incubation was continued. Further, the reversibility of the gaps formation was followed.

[4] = test system: Human Schlemm's canal (SC) cell monolayers; assay: SC cell monolayer permeability barrier function (HRP diffusion on Transwells); type: cell-based; conditions: 200 μM peptide, 1 hr, complete medium, n=7; mean ± S.E.
Protocol: as §1
To correlate the specific effects of the RGD peptide compared to a control RGE peptide, the standard device was used to measure the monolayer permeability barrier function on Transwells cell culture chambers (fibronectin-coated polycarbonate filters, […] pore size, Costar Corp.) as described by Lampugnani et al (J. Cell Biol. 112: 479-490 (1991)). The diffusion of horseradish peroxidase (HRP) through SC cell monolayer was determined with and without RGD hexapeptide GRGDTP (Sigma, St. Louis, Mo.) or known control RGE hexapeptide GRGESP (GibcoBRL, Gaithersberg, Md.). […] Results were expressed as percent change in enzyme activity as compared to untreated controls. Values were obtained from three independent experiments and expressed as means±S.E. A paired t-test analysis was also performed with respect to untreated controls.

For GRGDTP [GRGDTP], the “cellular toxicity in outflow pathway of perfused eyes” value [1] was “did not show signs of cellular toxicity”, the “cellular toxicity in outflow pathway of perfused eyes” value ([1]; listed as RGD) was “no sign of cellular toxicity” and the “evidence of anterior chamber inflammation and wound leakage” value [2] was “no clinically significant changes”.
For GRGESP, the “morphological effect on SC cell monolayer integrity” value (“morphological effect” below) ([3]; 200 μM peptide, up to 3 hrs) was “compact cellular morphology”, the “morphological effect” value ([3]; 1.0 mM peptide, 3 hrs) was “no such effect was noted” and the “morphological effect” value ([3]; 1.0 mM peptide, 3 hrs, listed as RGE peptide) was “no detectable effects”. For the same substance, the “increase in SC cells monolayer permeability (HRP diffusion) as compared to untreated controls” value [4] was 12%±3.
